Results filed as inconclusive are left out. Active and inactive are the calls of the source. How the calls were made is not given here.
These compounds were tested on C. albicans CaCi-8 + fluconazole, Alamar Blue growth, 48 h (assay: resistant C. albicans growth inhibition with fluconazole, dose response, CaCi-8 strain, Alamar Blue fluorescence (AID 2423)).
For C[C@H]([C@@H](N)C(=O)N[C@@H](C(=O)O)[C@@H]1O[C@H](n2ccc(=O)[nH]c2=O)[C@@H](O)[C@H]1O)[C@@H](O)c1ccc(O)cn1, the EC50 was 3.16 µM. In the case of N/C(=N\OC(=O)N1c2ccccc2Sc2ccccc21)c1ccccc1, the EC50 is reported as 0.193 µM. CCn1c(=O)c(C(=O)Nc2ncccc2C)c(O)c2ccccc21 gave an EC50 of 3.35 µM. With O=C(NC1CCCCC1)C(c1ccc2ncccc2c1)N(Cc1ccc(F)cc1)C(=O)c1ccc2c(c1)OCCO2 (stereo not drawn) the EC50 was > 15 µM (inactive). For Cc1ccc(S(=O)(=O)CC2CSc3nc4ccccc4n32)cc1 (stereo not drawn), the EC50 was 2.52 µM. In the case of CCOc1cc(/C=N/NC(=O)c2cccnc2)ccc1OCC(N)=O, the EC50 is reported as > 15 µM (inactive). O=C(Nc1cccc(Cl)c1)Nc1nccs1 showed an EC50 of 0.146 µM. In the case of CCOc1ccc(NC(=S)NNC(=O)c2ccc(Br)cc2)cc1, the EC50 is reported as 1.56 µM. c1ccc(CC2CCN(C3=Nc4cccc5cccc3c45)CC2)cc1 showed an EC50 of 4.4 µM. With COc1ccc(O)c(/C=N/NC(=O)c2ccc(CSc3nc(C)cc(C)n3)cc2)c1 the EC50 was 1.76 µM. For COc1cccc(C2CC(c3ccc(NS(C)(=O)=O)cc3)=NN2C(=O)c2ccccc2)c1OC (stereo not drawn), the EC50 was 3.73 µM. For O=C(Oc1c(CN2CCOCC2)cc(Cl)c2cccnc12)c1ccccc1, the EC50 was 2.65 µM. In the case of Cc1ccnc(Sc2ccc([N+](=O)[O-])cc2[N+](=O)[O-])n1, the EC50 is reported as 0.964 µM. In the case of O=C(CSc1nnc(-c2ccco2)n1Cc1ccccc1)OC1CCCCC1, the EC50 is reported as > 15 µM (inactive). In the case of O=C(NCc1ccco1)c1ccccc1NS(=O)(=O)c1ccc(Br)s1, the EC50 is reported as > 16 µM (inactive). CCn1c(C)nc2cc(C(=O)N/N=C/c3cccc(OC)c3O)ccc21 was tested, and the EC50 was > 16 µM (inactive). O=C(COc1ccc(Cl)cc1)NC1CCSC1=O (stereo not drawn) was tested, and the EC50 was > 16 µM (inactive). In the case of Cc1ccc(C)c(NC(=S)NNC(=O)c2csc(C)c2)c1, the EC50 is reported as 0.704 µM. Compound COC1=CC(=O)C(O)=C(CCCCCCC/C=C/CCCCCCCC2=C(O)C(=O)C=C(OC)C2=O)C1=O has an EC50 of 11.9 µM. With O=S(=O)(c1ccc(Cl)cc1)N1CCN(Cc2ccc(O)c3ncccc23)CC1 the EC50 was 2.94 µM. CC(=O)N1CCC(=NNC(=O)c2cc3ccccc3cc2O)CC1 was tested, and the EC50 was 11.9 µM. O=C(CN1CCN(S(=O)(=O)c2ccccc2)CC1)Nc1ccc2c(c1)CCC2 was tested, and the EC50 was 10.5 µM. Cc1ccc2nc(/C(C#N)=C\c3ccc(OC(=O)c4cccs4)cc3)[nH]c2c1 showed an EC50 of 0.528 µM. Compound Cc1nn(-c2ccccc2)c(C)c1C(=O)Nc1nnc(-c2ccco2)o1 has an EC50 of 0.421 µM. Work on Cc1cccc(C(=O)NNC2=C(C(=O)C(F)(F)F)CCC2)c1O yielded an EC50 of 1.23 µM. Compound CCOC(=O)Cc1csc(NC(=O)c2ccc3ncsc3c2)n1 has an EC50 of 6.82 µM. With COC(CN(C)C(=O)c1ccc2c(c1)NC(=O)c1ccccc1S2)OC the EC50 was > 15 µM (inactive). Compound Cc1nn(C)c(C)c1/C=C/C(=O)c1ccc(Cl)cc1Cl has an EC50 of 1.64 µM. In the case of Oc1ccc(Br)cc1/C=N/Nc1ccccn1, the EC50 is reported as 2.59 µM. With O=C(NC1CCCCC1)c1cc([N+](=O)[O-])[nH]n1 the EC50 was 1.12 µM. With COc1ccc(C(=O)NNC(=S)NC(=O)c2ccccc2)cc1 the EC50 was 2.65 µM. Work on O=C(O)CCCCCn1c(O)c(C=C2N=c3ccccc3=N2)sc1=S yielded an EC50 of 1.64 µM. Cc1c(Cl)ccc(S(=O)(=O)Nc2cccnc2)c1Cl was tested, and the EC50 was > 15 µM (inactive). Work on COc1ccc(C2=NN(c3nc4ccccc4s3)C(=O)C2)cc1 yielded an EC50 of 5.66 µM. For COc1cc(/C=C/C(=O)Nc2cccnc2)cc(OC)c1OC, the EC50 was > 16 µM (inactive). In the case of O=C(Nc1nnc(-c2ccccc2)o1)c1cc(-c2cccs2)nc2ccccc12, the EC50 is reported as 0.901 µM. Work on O=C(NNC(=S)NC(=O)C12CC3CC(CC(C3)C1)C2)c1ccncc1 yielded an EC50 of 4.64 µM. CC(C)CCNC(=O)C(c1ccco1)N(Cc1ccc(F)cc1)C(=O)c1snc(C(N)=O)c1N (stereo not drawn) was tested, and the EC50 was 15.8 µM. COc1cc([N+](=O)[O-])cc(/C=N/NC(=O)c2cc(-c3ccccc3)nc3ccccc23)c1O showed an EC50 of 1.54 µM. In the case of O=[N+]([O-])c1ccc(O)c2ncccc12, the EC50 is reported as 0.681 µM. O=C(NNC(=S)NC(=O)c1ccc(Br)cc1)c1ccc([N+](=O)[O-])cc1 gave an EC50 of 0.416 µM. Work on Cc1ccc(OCC(=O)NNC(=S)NC(=O)C2CC2)c(C)c1 yielded an EC50 of 0.83 µM. For COc1ccc(C(NC(=O)C(C)C)c2ccc3cccnc3c2O)cc1 (stereo not drawn), the EC50 was 0.802 µM.

Source: PubChem BioAssay AID2423 (Broad Institute, 2010)
